# Measurements from patent US20240254087A1, “SELECTIVE, PARTIAL, AND ARRESTIN-BIASED 5-HT2A AGONISTS WITH UTILITY IN VARIOUS DISORDERS” (Saint Joseph's University, priority 2021, published 2024).
# Entries after “also recorded” stand apart in the source; their conditions may differ. Like-named read-outs stand apart in the source and are kept apart here.
# Key:
# male C57BL/6J mice = experiment: Head-twitch response (HTR) in mice; format: in vivo, mouse; details: for ED50: Mus musculus
# Procedure: Male C57BL/6J mice (6-8 weeks old) from Jackson Labs (Bar Harbor, ME, USA) were used for the behavioral experiments. The mice were housed on a reversed light-dark cycle (lights on at 1900 h, off at 0700 h) in an AAAC-approved vivarium at the University of California San Diego. Mice were housed up to four per cage in a climate-controlled room and with food and water provided ad libitum except during behavioral testing. Testing was performed between 1000 and 1800 h (during the dark phase of the light-dark cycle). The studies were conducted in accordance with National Institutes Health (NIH) guidelines and were approved by the University of California San Diego Institutional Animal Care and Use Committee.
# The mice were allowed to recover from the magnet implantation surgeries for at least 1 week prior to behavioral testing. HTR experiments were conducted in a well-lit room, and the mice were allowed to habituate to the room for at least 1 h prior to testing. Head twitches was assessed in a 12-cm diameter glass cylinder surrounded by a magnetometer coil. Coil voltage was low-pass filtered (2 kHz), amplified, and digitized (20-kHz sampling rate) using a Powerlab/8SP with LabChart v 7.3.2 (ADInstruments, Colorado Springs, CO, USA). […] HTR counts were analyzed using one-way ANOVAs. Dunnett's test was used for post hoc comparisons.
# 5-HT2A [1] = target: T1, 5-HT2A (Homo sapiens, UniProt P28223); experiment: cell-based; parameters: expressed in transfected cells; host or cells: HEK293T, transient; details: for Emax: read-out: 5-HT2A Gq Emax (% 5-HT), BRET, mean ± SEM
# T1 sequence (P28223 whole entry): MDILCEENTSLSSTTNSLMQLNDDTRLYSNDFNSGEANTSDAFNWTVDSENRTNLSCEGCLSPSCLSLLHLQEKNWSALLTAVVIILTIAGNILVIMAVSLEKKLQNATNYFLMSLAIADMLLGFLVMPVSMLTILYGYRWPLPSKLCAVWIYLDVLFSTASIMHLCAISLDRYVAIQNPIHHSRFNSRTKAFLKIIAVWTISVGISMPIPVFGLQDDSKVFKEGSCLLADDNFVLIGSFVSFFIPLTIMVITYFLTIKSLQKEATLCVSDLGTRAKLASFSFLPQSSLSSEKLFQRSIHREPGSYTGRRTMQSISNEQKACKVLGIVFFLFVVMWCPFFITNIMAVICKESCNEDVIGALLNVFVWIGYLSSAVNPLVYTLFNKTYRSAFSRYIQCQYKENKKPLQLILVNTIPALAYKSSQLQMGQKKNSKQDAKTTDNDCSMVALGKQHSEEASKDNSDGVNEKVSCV
# Procedure: (§1) After at least 18-24 hours, transfected cells were plated in poly-lysine coated 96-well white clear bottom cell culture plates in DMEM containing 1% dialyzed FBS at a density of 25-40,000 cells in 200 μL per well and incubated overnight. After approximately 20-24 hours, media was decanted and cells were washed with 60 μL of drug buffer (1×HBSS, 20 mM HEPES, pH 7.4), followed by 60 μL of drug buffer and pre-incubated in a humidified atmosphere at 37° C. before receiving drug stimulation. Drug stimulation was induced by adding 30 μL of a solution of drug (3X) diluted in McCorvy buffer (1×HBSS, 20 mM HEPES, pH 7.4, supplemented with 0.3% BSA fatty acid free, 0.03% ascorbic acid) and plates were incubated at the indicated time and temperature. Fifteen minutes before reading, 10 μL of the RLuc substrate, either coelenterazine h for β-Arrestin recruitment BRET^1 or coelenterazine 400a for Gq dissociation BRET^2 (Prolume/Nanolight, 5 μM final concentration) was addedper well. […] The BRET ratios of fluorescence/luminescence were calculated per well and were plotted as a function of drug concentration using Graphpad Prism 8 (Graphpad Software Inc., San Diego, CA).
# 5-HT2A [2] = target: T1, 5-HT2A; experiment: cell-based; parameters: expressed in transfected cells; host or cells: HEK293T, transient; details: for Emax: read-out: 5-HT2A β-arrestin Emax (% 5-HT), BRET, mean ± SEM
# Procedure: as §1
# 5-HT2B = 5-HT2B (Homo sapiens, UniProt P41595); experiment: BRET Gq dissociation, 5-HT2B; format: cell-based; parameters: expressed in transfected cells; host or cells: HEK293T, transient; details: for Emax: read-out: 5-HT2B Gq Dissociation (BRET) EMAX ± SEM (%5-HT)
# Sequence of 5-HT2B (P41595 whole entry): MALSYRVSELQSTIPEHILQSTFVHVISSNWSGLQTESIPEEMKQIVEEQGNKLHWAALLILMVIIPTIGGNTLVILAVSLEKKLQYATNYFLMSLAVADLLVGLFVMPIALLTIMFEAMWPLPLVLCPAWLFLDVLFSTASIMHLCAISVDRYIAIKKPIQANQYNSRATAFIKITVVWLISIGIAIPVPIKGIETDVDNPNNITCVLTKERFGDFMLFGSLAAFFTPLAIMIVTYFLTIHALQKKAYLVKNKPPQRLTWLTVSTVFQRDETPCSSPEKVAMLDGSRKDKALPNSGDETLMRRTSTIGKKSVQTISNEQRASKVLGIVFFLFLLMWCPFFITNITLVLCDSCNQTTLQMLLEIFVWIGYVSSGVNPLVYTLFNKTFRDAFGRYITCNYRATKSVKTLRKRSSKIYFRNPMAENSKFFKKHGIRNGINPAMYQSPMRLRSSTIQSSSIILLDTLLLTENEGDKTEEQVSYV
# Procedure: After at least 18-24 hours, transfected cells were plated in poly-lysine coated 96-well white clear bottom cell culture plates in DMEM containing 1% dialyzed FBS at a density of 25-40,000 cells in 200 μL per well and incubated overnight. After approximately 20-24 hours, media was decanted and cells were washed with 60 μL of drug buffer (1×HBSS, 20 mM HEPES, pH 7.4), followed by 60 μL of drug buffer and pre-incubated in a humidified atmosphere at 37° C. before receiving drug stimulation. Drug stimulation was induced by adding 30 μL of a solution of drug (3X) diluted in McCorvy buffer (1×HBSS, 20 mM HEPES, pH 7.4, supplemented with 0.3% BSA fatty acid free, 0.03% ascorbic acid) and plates were incubated at the indicated time and temperature. Fifteen minutes before reading, 10 μL of the RLuc substrate, either coelenterazine h for β-Arrestin recruitment BRET^1 or coelenterazine 400a for Gq dissociation BRET^2 (Prolume/Nanolight, 5 μM final concentration) was addedper well. Plates were read for luminescence at 485 nm and fluorescent eYFP emission at 530 nm for BRET^1 and at 400 nm and fluorescent GFP2 emission at 510 nm for BRET2 at 1 second per well using a Mithras LB940 (Berthold). The BRET ratios of fluorescence/luminescence were calculated per well and were plotted as a function of drug concentration using Graphpad Prism 8 (Graphpad Software Inc., San Diego, CA).
# 5-HT2C = target: T2, 5-HT2C (Homo sapiens, UniProt P28335); experiment: BRET Gq dissociation, 5-HT2C; format: cell-based; parameters: expressed in transfected cells; host or cells: HEK293T, transient; details: for Emax: read-out: 5-HT2C Gq Dissociation (BRET) EMAX ± SEM (%5-HT)
# T2 sequence (P28335 33-458): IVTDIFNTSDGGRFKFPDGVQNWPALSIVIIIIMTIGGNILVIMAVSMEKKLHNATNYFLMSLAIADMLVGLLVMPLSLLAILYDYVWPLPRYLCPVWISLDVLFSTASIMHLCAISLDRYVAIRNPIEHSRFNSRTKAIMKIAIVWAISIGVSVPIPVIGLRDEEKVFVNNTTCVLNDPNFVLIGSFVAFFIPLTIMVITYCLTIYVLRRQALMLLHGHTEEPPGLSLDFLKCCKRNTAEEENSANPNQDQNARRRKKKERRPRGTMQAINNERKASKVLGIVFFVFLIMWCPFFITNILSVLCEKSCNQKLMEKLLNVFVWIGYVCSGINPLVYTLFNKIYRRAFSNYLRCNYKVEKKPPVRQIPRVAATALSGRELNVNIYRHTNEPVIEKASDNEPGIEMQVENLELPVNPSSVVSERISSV
# Procedure: as §1
# [3] = read-out: HTR ED50 mg/kg (95% CI), SC, except DOI and 25D-NBOMe IP
# [4] = BRET, mean ± SEM, read-out: 5-HT2A Gq dissociation pEC50 (converted)
# [5] = BRET, mean ± SEM, read-out: 5-HT2A β-arrestin recruitment pEC50 (converted)
# [6] = read-out: 5-HT2C Gq Dissociation (BRET) pEC50 ± SEM (converted)
SMILES,Max HTR response during a 30-min assessment (maximum counts ÷ baseline response) (male C57BL/6J mice),ED50 (male C57BL/6J mice; [3]) [mg/kg],Emax (5-HT2A [1]) [%],Emax (5-HT2A [2]) [%],Induction of the HTR in mice (in words) (male C57BL/6J mice),EC50 (5-HT2A [1]; [4]) [nM],5-HT2B Gq Dissociation (BRET) EMAX ± SEM (%5-HT) (5-HT2B),5-HT2B Gq Dissociation (BRET) pEC50 ± SEM (5-HT2B),EC50 (5-HT2A [2]; [5]) [nM],Emax (5-HT2C) [%],EC50 (5-HT2C; [6]) [nM],further results
COc1cc(CCNCc2ccccc2OC)c(OC)cc1C [25D-NBOMe (26)],15.6-fold increase,0.23,≥ 76,126 ± 3.4,,,,,,,,"ED50 (male C57BL/6J mice; read-out: HTR ED50 μmol/kg (95% CI), SC, except DOI and 25D-NBOMe IP): 0.64 µmol/kg; 5-HT2A Gq Emax (% 5-HT) (5-HT2A [1]; BRET, mean ± SEM): 93.0 ± 1.3 % 5-HT"
COc1cc(OC)c(OC)cc1CCNCc1cccc2ccccc12 [(38)],1.0-fold increase,> 30,24.3 ± 1.2,74.9 ± 1.9,failed to induce a HTR,5.5,No activity,No activity,1.62,64.4 ± 2,12.6,
"COc1cc2c(cc1CCNCc1cccc3ccccc13)OCO2 [(39), [2-(6-methoxy-2H-1,3-benzodioxol-5-yl)ethyl][(naphthalen-1-yl)methyl]amine]",1.4-fold increase,> 30,26.4 ± 2,80.1 ± 2.5,failed to induce a HTR,15.5,No activity,No activity,5.89,90.5 ± 2.3,17,
"COc1cc(OC)c(OC)cc1CCNCc1cccc(I)c1 [(53), N-(3-iodobenzyl)-2-(2,4,5-trimethoxyphenyl)-ethan-1-amine]",1.1-fold increase,> 30,50.1 ± 1.9,82.7 ± 5.4,failed to induce the HTR,,,,,91.5 ± 3.2,,EC50 (5-HT2B): 0.724 nM; Emax (5-HT2B): 20.3 ± 2.8%; EC50 (5-HT2C): 15.1 nM
"COc1cc(OC)c(OC)cc1CCNCc1ccccc1-c1cccs1 [(59), N-(2-(thiophen-2-yl)benzyl)-2-(2,4,5-trimethoxyphenyl)-ethan-1-amine]",1.6-fold increase,> 30,34.9 ± 1.6,100 ± 3.5,lacked a HTR,24,No activity,No Activity,8.51,,,5-HT2C Gq Dissociation (BRET) EMAX ± SEM (%5-HT) (5-HT2C): No Activity; 5-HT2C Gq Dissociation (BRET) pEC50 ± SEM (5-HT2C): No Activity
COc1cc(OC)c(OC)cc1CCNCc1ccccc1OCc1ccccc1 [(61)],1.4-fold increase,> 30,< 10,72.9 ± 4.2,lacked a HTR; also recorded: do not induce the HTR,,No activity,No activity,3.31,,,"5-HT2A Gq dissociation pEC50 (5-HT2A [1]; BRET, mean ± SEM): No activity; 5-HT2C Gq Dissociation (BRET) EMAX ± SEM (%5-HT) (5-HT2C): No Activity; 5-HT2C Gq Dissociation (BRET) pEC50 ± SEM (5-HT2C): No Activity"
COc1cc(OC)c(OC)cc1CCNCc1cccc(-c2ccccc2)c1O [(63)],,,< 10,117 ± 14.6,,,No activity,No activity,,79.2 ± 2.6,51.3,"5-HT2A Gq dissociation pEC50 (5-HT2A [1]; BRET, mean ± SEM): No activity; EC50 (5-HT2A [2]): 102 nM"
COc1cc(OC)c(OC)cc1CCNCc1ccccc1-c1ccc(O)cc1 [(64)],2.1-fold increase,> 30,43.6 ± 2.5,80.5 ± 5.5,,,,,11.7,80.6 ± 9.8,1700,EC50 (5-HT2A [1]): 617 nM; Emax (5-HT2B): 29.2 ± 10.6%; EC50 (5-HT2B; read-out: 5-HT2B Gq Dissociation (BRET) pEC50 ± SEM (converted)): 3020 nM
COc1cc(OC)c(OC)cc1CCNCc1cccc(F)c1F [(65)],,,76.5 ± 2.3,101 ± 2.7,,64.6,No activity,No activity,170,83.3 ± 6.3,200,
